Measurements: US10280179B2, “Spiroquinoxaline derivatives as inhibitors of non-apoptotic regulated cell-death” (Helmholtz Zentrum Munchen—Deutches Forschungszentrum Fur …, priority 2013, dated 2019)
Read-outs that look alike come from different tables or passages of the source.

Tests used:
Format in all cases: cell-based
[1] = test system: human neuroblastoma cell line SH-SY5Y; assay: Inhibition of BSO-induced non-apoptotic cell death (Example B.1); settings: SH-SY5Y cells, 72 hours
Description: Inhibition of BSO-Induced Non-Apoptotic Cell Death by Compounds Disclosed Herein
L-Buthionine sulfoximine (BSO) is a well-known glutathione (GSH) depletory, which inhibits gamma-glutamyl-cysteine-synthetase, the enzyme catalyzing the rate-limiting step in GSH biosynthesis. The human neuroblastoma cell line SH-SY5Y is sensitive to BSO-induced intracellular glutathione depletion, which causes high levels of reactive oxygen species (ROS) and cellular stress mimicking cellular conditions following ischemia (cf., e.g., Yamada et al., Neurochem. Int. 59:1003-9 (2011)).
Compounds disclosed herein were evaluated for their ability to promote cell survival upon administration of a lethal dose of BSO to cell-culture medium. Briefly, SH-SY5Y cells (ATCC® CRL-2266™) were propagated in DMEM supplemented with 10% FBS/1% Penicillin-Streptomycin, and then seeded onto 96-well plates at a concentration of 750 cells/well in 100 μL of media, to which BSO (Sigma Aldrich) was added (to a final concentration of 50 μM) together with increasing concentrations of the compound to be tested, and the plates incubated at 37° C./5% CO2 for 72 hours. Compound dilutions (0.5 pM to 100 μM) were prepared from 10 mM stocks dissolved in DMSO and diluted in media. Cells treated with BSO alone were used as negative control and alpha-Tocopherol (Sigma Aldrich) was used as positive control. Compound concentrations were tested in triplicate. After incubation, cell survival was detected using the live/dead cell assay AquaBluer™ (MultiTarget Pharmaceuticals) and quantified using a fluorescence plate reader (excitation filter: 530-560 nm/emission filter: 590 nm) (SpectraMax M4; Molecular Devices). Fluorescence data so obtained was normalised to the percentage of surviving cells and IC50 values calculated using the GraphPad Prism (GraphPad Software, Inc) software package.

[2] = test system: mouse hippocampal cell line (Ht22); assay: Inhibition of glutamate-induced non-apoptotic cell death (Example B.2); settings: HT-22, Ht22 cells
Description: Inhibition of Glutamate-Induced Non-Apoptotic Cell Death by Compounds of the Present Invention
Glutamate toxicity is conferred on cells from the mouse hippocampal cell line (Ht22) by inhibition of the cysteine/glutamate antiporter, System xc-, leading to impaired cysteine uptake and subsequent GSH depletion. This model is frequently used for mimicking glutathione depletion following oxidative stress in stroke, brain trauma and other neurodegenerative diseases and cellular conditions following ischemia (for example: van Leyen et al, J. Neurochem. 92:824-30 (2005)).
Compounds disclosed herein were evaluated for their ability to promote cell survival upon administration of a lethal dose of glutamate (GLU) to the cell-culture medium.
Briefly, Ht22 cells (ATCC) were propagated DMEM supplemented with 10% FBS/1% Penicillin-Streptomycin, and then seeded onto 96-well plates at a concentration of 2,000 cells/well in 100 μL of MEDIA, simultaneously with glutamate (Sigma Aldrich) to a final concentration of 5 mM, together with increasing concentrations of the compound to be tested (0.5 pM to 100 μM), and the plates incubated at 37° C./5% CO2 for 72 hours. Compound dilutions were prepared from 10 mM stocks dissolved in DMSO and diluted in media. Cells treated with glutamate alone were used as negative control and alpha-tocopherol (Sigma Aldrich) was used as positive control. Compound concentrations were tested in triplicate. After incubation, cell survival was detected and quantified as described in Example B.1.

[3] = test system: Pfa1 cells; assay: Inhibition of non-apoptotic cell death after tamoxifen-induced GPx4 knockout in a recombinant cell line (Example B.4); settings: Mus musculus, read-out: Pfa1/TAM IC50
Description: Inhibition of Non-Apoptotic Cell-Death by Compounds Disclosed Herein Using a Recombinant Cell Line
To combat high intracellular ROS levels, mammalian cells have evolved an intricate network of ROS scavenging in cells, in which the thioredoxin and glutathione (GSH) dependent systems prevail. […] Knockout of GPx4 in neurons causes massive neurodegeneration in cortical, cerebellar and hippocampal neurons underscoring the high relevance of ROS-induced cell death signaling in the brain. Briefly, immortalised fibroblasts from these mice were made to contain tamoxifen-inducible CreERT2, which catalyzes the functional ablation of both copies of GPx4 and resulting in a complete knockout of GPx4, a massive ROS burst, and cell death in cell culture. These cells (Pfa1 cells) were used to characterize compounds of the present invention, whereby tamoxifen (TAM) was given on day 0 along with the compound under test, and 72 hours later cell survival was evaluated using AlamarBlue.

[4] = Cellular toxicity, same assay as Example B.4 without TAM (Example B.5); settings: mouse; Pfa1 cells without TAM; read-out: TC50 (the source's name)
Description: Cellular Toxicity of Compounds of the Invention
An estimate of the toxicity for compounds of the invention was obtained by using the same assay as described in Example B.4, but without the addition of TAM. […] Such TC50 values obtained for certain compounds disclosed herein, together with an approximate therapeutic window (estimated by dividing each TC50 by the corresponding IC50 determined from example B.4) are shown in Table 3.

[5] = 50 μM BSO, read-out: SH-SY5Y/BSO IC50
[6] = glutamate-induced cell death, read-out: Ht22/GLU

SMILES	IC50 [1, 5] [nM]	IC50 [2, 6] [nM]	IC50 [3] [nM]	CC50 [4] [nM]	IC50 ([1]; BSO 50 μM, cell survival (AquaBluer), read-out: SH-SY5Y/BSO (Example B.1) IC50) [nM]	IC50 ([2]; glutamate 5 mM, 72 hours, cell survival, read-out: Ht22/GLU (Example B.2) IC50) [nM]
Clc1ccccc1CNC1=Nc2ccccc2NC12CCCCC2 [C-1]	< 500	< 1000	< 500	20000 to 50000	–	–
Clc1cccc(CNC2=Nc3ccccc3NC23CCCCC3)c1 [C-2]	< 100	< 500	< 100	10000 to 20000	–	–
Cc1ccc(CNC2=Nc3ccccc3NC23CCCCC3)cc1 [C-12]	< 500	< 500	< 500	50000 to 100000	468	298
CC(=O)NC1CCC2(CC1)Nc1ccccc1N=C2NCc1cccc(Cl)c1 (stereo not shown) [C-111]	< 500	< 1000	< 1000	10000 to 20000	–	–
Fc1cc2c(cc1F)NC1(CCCCC1)C(NCc1cccc(Cl)c1)=N2 [C-137]	< 200	< 200	< 200	10000 to 20000	–	–
Clc1cccc(CNC2=Nc3ccccc3NC23CCCCCCC3)c1 [C-206]	< 50	< 500	< 500	5000 to 10000	–	–
c1ccc(CNC2=Nc3ccccc3NC23CCCCCC3)cc1 [C-214]	< 500	< 1000	< 500	10000 to 20000	–	–
c1ccc(CNC2=Nc3ccccc3NC23CCCCC3)cc1 [C-215]	< 200	< 1000	< 1000	20000 to 50000	–	–
Clc1cccc(CNC2=Nc3ccccc3NC23CCCCCC3)c1 [C-216]	< 50	< 500	< 100	10000 to 20000	–	–
Clc1cc2c(cc1Cl)NC1(CCCCC1)C(NCc1ccccc1)=N2 [C-217]	< 50	< 200	< 50	20000 to 50000	–	–
c1ccc(CNC2=Nc3cc4c(cc3NC23CCCCC3)OCCO4)cc1 [C-223]	< 500	< 1000	< 200	20000 to 50000	–	–
c1ccc(CCCNC2=Nc3ccccc3NC23CCNCC3)cc1 [N-228]	–	< 50	< 100	2000 to 5000	–	–
CN1CCC2(CC1)Nc1cc(F)c(F)cc1N=C2NCc1ccccc1 [N-229]	–	< 100	< 100	5000 to 10000	–	–
Cc1cc2c(cc1C)NC1(CCNCC1)C(NCc1ccc(Cl)c(Cl)c1)=N2 [N-232]	–	< 10	< 10	1000 to 2000	–	–
Cc1cc2c(cc1C)NC1(CCN(C)CC1)C(NCc1ccccc1)=N2 [N-233]	–	< 100	< 200	10000 to 20000	–	–
CCCCCCCCN1CCC2(CC1)Nc1ccccc1N=C2NCc1ccccc1 [N-234]	–	< 100	< 100	5000 to 10000	–	–
Cc1cccc(CNC2=Nc3cc(C)c(C)cc3NC23CCNCC3)c1 [N-235]	–	< 50	< 50	1000 to 2000	–	–
Clc1cc2c(cc1Cl)NC1(CCCNCC1)C(NCc1ccccc1)=N2 (stereo not shown) [N-236]	–	< 50	< 100	2000 to 5000	–	–
Fc1cccc(CNC2=Nc3ccccc3NC23CCOCC3)c1 [O/S-5]	–	< 5000	< 2000	50000 to 100000	–	–
Cc1cccc(CNC2=Nc3ccccc3NC23CCOCC3)c1 [O/S-11]	–	< 5000	< 2000	50000 to 100000	–	–
COc1cccc(CNC2=Nc3ccccc3NC23CCOCC3)c1 [O/S-14]	–	< 5000	< 5000	50000 to 100000	–	–
FC(F)(F)c1cccc(CNC2=Nc3ccccc3NC23CCOCC3)c1 [O/S-23]	–	< 1000	< 500	20000 to 50000	–	–

SMILES	IC50 [1, 5] [nM]	IC50 [2, 6] [nM]	IC50 [3] [nM]	CC50 [4] [nM]	IC50 ([1]; BSO 50 μM, cell survival (AquaBluer), read-out: SH-SY5Y/BSO (Example B.1) IC50) [nM]	IC50 ([2]; glutamate 5 mM, 72 hours, cell survival, read-out: Ht22/GLU (Example B.2) IC50) [nM]
Fc1cc(Cl)ccc1CNC1=Nc2ccccc2NC12CCOCC2 [O/S-61]	–	< 1000	< 1000	20000 to 50000	–	–
Clc1cccc(CCNC2=Nc3ccccc3NC23CCOCC3)c1 [O/S-79]	–	< 1000	< 1000	20000 to 50000	–	–
Clc1ccccc1CNC1=Nc2ccccc2NC12CCSCC2 [O/S-167]	–	< 1000	< 500	20000 to 50000	–	–
Clc1ccc(CNC2=Nc3ccccc3NC23CCSCC3)cc1 [O/S-169]	–	< 1000	< 1000	20000 to 50000	–	–
FC(F)(F)c1cccc(CNC2=Nc3ccccc3NC23CCSCC3)c1 [O/S-189]	–	< 5000	< 5000	50000 to 100000	–	–
Fc1cccc(F)c1CNC1=Nc2ccccc2NC12CCOCC2 [O/S-341]	–	< 2000	< 2000	50000 to 100000	–	–
c1ccc(CCCNC2=Nc3ccccc3NC23CCOCC3)cc1 [O/S-343]	–	< 5000	< 2000	20000 to 50000	–	–
Cc1cc(C)cc(CNC2=Nc3ccccc3NC23CCOCC3)c1 [O/S-344]	–	< 2000	< 1000	20000 to 50000	–	–
Fc1cc2c(cc1F)NC1(CCOCC1)C(NCc1ccccc1)=N2 [O/S-346]	–	< 1000	< 500	50000 to 100000	–	–
c1ccc(CCNC2=Nc3ccccc3NC23CCOCC3)cc1 [O/S-347]	–	< 5000	< 5000	50000 to 100000	–	–
CC(NC1=Nc2ccccc2NC12CCOCC2)c1ccccc1 (stereo not shown) [O/S-348]	–	< 5000	< 5000	50000 to 100000	–	–
Clc1cc2c(cc1Cl)NC1(CCSCC1)C(NCc1ccccc1)=N2 [O/S-349]	–	< 500	< 200	20000 to 50000	–	–
CC(C)(C)c1ccc(CNC2=Nc3ccccc3NC23CCOCC3)cc1 [O/S-350]	–	< 500	< 500	20000 to 50000	–	–
Fc1cccc(F)c1CNC1=Nc2ccccc2NC12CCSCC2 [O/S-351]	–	< 1000	< 1000	50000 to 100000	–	–
c1ccc(C(CNC2=Nc3ccccc3NC23CCOCC3)c2ccccc2)cc1 [O/S-352]	–	< 1000	< 1000	20000 to 50000	–	–
CC(CCc1ccccc1)NC1=Nc2ccccc2NC12CCOCC2 (stereo not shown) [O/S-353]	–	< 2000	< 500	20000 to 50000	–	–
Clc1ccc(CNC2=Nc3ccccc3NC23CCOCC3)c(Cl)c1 [O/S-354]	–	< 500	< 500	20000 to 50000	–	–
Fc1ccc(CNC2=Nc3ccccc3NC23CCOCC3)c(F)c1 [O/S-355]	–	< 2000	< 2000	50000 to 100000	–	–
c1ccc(CCCNC2=Nc3ccccc3NC23CCSCC3)cc1 [O/S-356]	–	< 2000	< 2000	20000 to 50000	–	–
Cc1cc(C)cc(CNC2=Nc3ccccc3NC23CCSCC3)c1 [O/S-357]	–	< 500	< 500	10000 to 20000	–	–
c1ccc(CCCCNC2=Nc3ccccc3NC23CCOCC3)cc1 [O/S-358]	–	< 2000	< 2000	10000 to 20000	–	–
Fc1ccc(CNC2=Nc3ccccc3NC23CCSCC3)c(F)c1 [O/S-359]	–	< 5000	> 5000	50000 to 100000	–	–
